# Measured values as given in patent US7205150B2, “Transgenic plants over-expressing plant ADP-glucose pyrophosphatase” (Universidad Publica de Navarra, priority 2000, dated 2007).
# Entries after “also recorded” stand apart in the source; their conditions may differ.
# System: AGPPase (soluble and particulate isoforms)
# Assay: AGPPase enzymatic assay (two-step spectrophotometric determination of G1P produced from ADPG)
# Type: biochemical, barley (Hordeum vulgare), tomato (Lycopersicon sculentum)
# Conditions: not given
Compound,Hydrolysis / recognition as substrate by AGPPase,Inhibition of AGPPase,Effect of typical phosphodiesterase inhibitors (reducing and chelating agents) on AGPPase activity
"Nc1ncnc2c1ncn2[C@@H]1O[C@H](COP(=O)(O)OS(=O)(=O)O)[C@@H](OP(=O)(O)O)[C@H]1O [PAPS, 3′-phosphoadenosine 5′-phosphosulphate]",recognises; also recorded: catalyse the hydrolysis,,
O=C(O)[C@H](O)COP(=O)(O)O [3-phosphoglycerate],do not hydrolyse,inhibited,
Nc1ncnc2c1ncn2[C@@H]1O[C@H](COP(=O)(O)OP(=O)(O)OP(=O)(O)O)[C@@H](O)[C@H]1O [ATP],,inhibited,
"O=[N+]([O-])c1ccc(OP(=O)(O)Oc2ccc([N+](=O)[O-])cc2)cc1 [bis-PNPP, bis-paranitrophenylphosphate]",recognise,,
arsenate,,strongly inhibited,
"Nc1ncnc2c1ncn2[C@@H]1O[C@H](COP(=O)(O)OS(=O)(=O)O)[C@@H](O)[C@H]1O [APS, adenosine 5′phosphosulphate]",recognises; also recorded: catalyse the hydrolysis; also recorded: preferred substrates,,
Nc1ncnc2c1ncn2[C@@H]1O[C@H](COP(=O)(O)O)[C@@H](O)[C@H]1O [AMP],do not hydrolyse,inhibited,
[O]=[Mo](=[O])([O-])[O-] [molybdate],,strongly inhibited,
"O=C[C@H](O)[C@@H](O)[C@H](O)[C@H](O)COP(=O)(O)O [G6P, glucose-6-phosphate]",do not hydrolyse,,
Nc1ncnc2c1ncn2[C@@H]1O[C@H](COP(=O)(O)OP(=O)(O)O)[C@@H](O)[C@H]1O [ADP],,inhibited,
OCCS [β-mercaptoethanol],,,not affected
Nc1ncnc2c1ncn2[C@@H]1O[C@H](COP(=O)(O)OP(=O)(O)O[C@H]2O[C@H](CO)[C@@H](O)[C@H](O)[C@@H]2O)[C@@H](O)[C@H]1O [ADP-mannose],recognises,,
"Nc1ncnc2c1ncn2[C@@H]1O[C@H](COP(=O)(O)OP(=O)(O)O[C@H]2O[C@H](CO)[C@@H](O)[C@H](O)[C@H]2O)[C@@H](O)[C@H]1O [ADPG, ADPglucose]",catalyse the hydrolysis; also recorded: preferred substrates,,
Nc1nc2c(ncn2[C@@H]2O[C@H](COP(=O)(O)OP(=O)(O)O[C@H]3O[C@H](CO)[C@@H](O)[C@H](O)[C@@H]3O)[C@@H](O)[C@H]2O)c(=O)[nH]1 [GDP-mannose],recognises,,
Nc1nc2c(ncn2[C@@H]2O[C@H](COP(=O)(O)OP(=O)(O)O[C@H]3O[C@H](CO)[C@@H](O)[C@H](O)[C@H]3O)[C@@H](O)[C@H]2O)c(=O)[nH]1 [GDP-glucose],recognise,,

# Same assay, conditions: Km of ADP-glucose relative to this substrate
row,Compound,Km / affinity compared with ADP-glucose
1,"Nc1ncnc2c1ncn2[C@@H]1O[C@H](COP(=O)(O)OS(=O)(=O)O)[C@@H](O)[C@H]1O [APS, adenosine 5′phosphosulphate]",similar
2,Nc1ncnc2c1ncn2[C@@H]1O[C@H](COP(=O)(O)OP(=O)(O)OC[C@H]2OC(O)[C@H](O)[C@@H]2O)[C@@H](O)[C@H]1O (some centres unmarked) [ADP-ribose],four of five times lower

# Same assay, conditions: read-out: Michaelis-Menten constant (Km)
row,Compound,Km [µM]
1,"Nc1ncnc2c1ncn2[C@@H]1O[C@H](COP(=O)(O)OP(=O)(O)O[C@H]2O[C@H](CO)[C@@H](O)[C@H](O)[C@H]2O)[C@@H](O)[C@H]1O [ADPG, ADPglucose]",500
